Non-standard residues stand in square brackets, D forms with d. Residues, ends and D or L forms follow the SMILES beside them.
Tests used:
human MOR [1] = target: T1, human MOR (Homo sapiens, UniProt P35372); experiment: [35S]GTPγS binding assay, CHO-hMOR cell membranes; assay type: biochemical; details: for % stim.: relative to reference MOR agonist DAMGO, mean ± SEM, n = 3–4
T1 construct: expressed in transfected cells; host or cells: CHO cells (CHO-hMOR), gift of Dr. Lawrence Toll, SRI International
Description: All data are presented as mean ± SEM. A p < 0.05 was considered statistically significant.

human KOR = target: T2, human KOR (Homo sapiens, UniProt P41145); experiment: Radioligand competition binding, [3H]U69,593, CHO-hKOR cell membranes; details: for Ki: CHO-hKOR membranes, [3H]U69,593 1 nM, mean ± SEM, n = 3, read-out: Opioid Receptor Binding (Ki, nM) KOR
T2 construct: expressed in transfected cells; host or cells: CHO cells (CHO-hKOR), gift of Dr. Lawrence Toll, SRI International

human NOP receptor = target: T3, human NOP receptor (Homo sapiens, UniProt P41146); experiment: Radioligand binding, [3H]nociceptin, CHO-hNOP cell membranes; details: for Ki: CHO-hNOP membranes, [3H]nociceptin 0.1 nM, n = 3, read-out: Opioid Receptor Binding (Ki, nM) NOP
T3 construct: expressed in transfected cells; host or cells: CHO cells (CHO-hNOP), gift of Dr. Lawrence Toll, SRI International

[2] = Body weight changes during chronic s.c. treatment; assay type: in vivo, mice; details: chronic administration of 7.8 µmol/kg s.c. twice daily for 5 days, vs. saline
Procedure: (§1) Experiments were performed with male CD1 mice (8–10 weeks old, 30–35 g body weight) purchased from Janvier Labs (Le Genest-Saint-Isle, France). All animal care and experimental procedures were in accordance with the ethical guidelines for the animal welfare standards of the European Communities Council Directive (2010/63/EU) and were approved by the Committee of Animal Care of the Austrian Federal Ministry of Science and Research. Mice were group-housed (maximum of 5 animals per cage) in a temperature- (21–22 °C) and humidity-controlled (60–70%) specific pathogen-free room with a 12 h light/dark cycle and with free access to food and water. LENART01 and naloxone were prepared in sterile physiological 0.9% saline solution. […]
(§2) Opioid physical dependence was assessed using naloxone-induced withdrawal syndrome in mice as described previously. […] Animals were immediately placed in clear acrylic cylinders, and signs of opioid withdrawal were recorded for 15 min. Monitored behaviors included vertical jumps, paw tremor, head shakes, urine output, the presence/absence of diarrhea, feces output and body weight loss. For each mouse, a global withdrawal score was calculated by summing the values obtained for each sign (one point was assigned to every 3 jumps and 5 paw tremors, respectively, whereas all other signs were given the absolute values recorded during the test). […]

human MOR [3] = target: T1, human MOR; experiment: Radioligand competition binding, [3H]DAMGO, CHO-hMOR cell membranes; details: read-out: Opioid Receptor Binding (Ki, nM) MOR
mice [4] = experiment: Rotarod test after s.c. administration; assay type: in vivo; details: 7.8 and 39 µmol/kg, any time point, vs. saline
Procedure: (§3) Experiments were performed with male CD1 mice (8–10 weeks old, 30–35 g body weight) purchased from Janvier Labs (Le Genest-Saint-Isle, France). All animal care and experimental procedures were in accordance with the ethical guidelines for the animal welfare standards of the European Communities Council Directive (2010/63/EU) and were approved by the Committee of Animal Care of the Austrian Federal Ministry of Science and Research. Mice were group-housed (maximum of 5 animals per cage) in a temperature- (21–22 °C) and humidity-controlled (60–70%) specific pathogen-free room with a 12 h light/dark cycle and with free access to food and water. LENART01 and naloxone were prepared in sterile physiological 0.9% saline solution. Tested doses of LENART01 were 0.78, 3.9, 7.8 and 39 µmol/kg (1, 5, 10 and 50 mg/kg, respectively). LENART01 or vehicle (saline) were s.c. administered in a volume of 10 µL/g body weight.
Animals were accustomed to the equipment in two training sessions (30 min apart) one day before testing. […] The time spent on the drum was recorded for each mouse before (baseline) and after the s.c. administration of saline or test compound (i.e., 30, 60 and 120 min). […] The rotarod data are expressed as percentage (%) changes from the rotarod latencies obtained before (baseline, B) and after drug administration (test, T) and were calculated as follows: 100 × (T/B). […]

[5] = Pharmacokinetic study: detection in brain homogenate by LC-DAD-MS (BBB permeability); assay type: in vivo; details: 7.8 and 39 µmol/kg s.c., mice, brains two hours after treatment
Procedure: as §3
Two hours after the s.c. administration of LENART01 (doses of 7.8 and 39 µmol/kg), the mice were sacrificed and the brains were removed, washed with sterile physiological 0.9% saline and frozen in dry ice until use. […] The MS spectra were recorded in the negative ion mode only. The UV spectra were recorded over the range of 200–600 nm. […] The presence of the analyzed compound was checked by the monitoring of its pseudomolecular ion eluting at ca. 10 min. […]

human DOR = target: T4, human DOR (Homo sapiens, UniProt P41143); experiment: Radioligand competition binding, [3H]DPDPE, CHO-hDOR cell membranes
T4 construct: expressed in transfected cells; host or cells: CHO cells (CHO-hDOR), gift of Dr. Lawrence Toll, SRI International

mice [6] = experiment: Naloxone-precipitated withdrawal syndrome after chronic s.c. treatment; assay type: in vivo; details: 7.8 µmol/kg s.c. twice daily for 5 days; naloxone 1 mg/kg s.c. two hours after last injection; vs. saline
Procedure: as §1, §2

mice [7] = details: repeated s.c. administration, 15 µmol/kg (5 mg/kg); cited from earlier work
mice [8] = details: s.c., 31 µmol/kg (10 mg/kg); cited from earlier work

C[C@@H](NC(=O)[C@@H](N)Cc1ccc(O)cc1)C(=O)NCC(=O)N(C)[C@@H](Cc1ccccc1)C(=O)NCCO [DAMGO, reference compound]
% stim. (human MOR [1]): 100%

C[C@@H](NC(=O)[C@@H](N)Cc1ccc(O)cc1)C(=O)N[C@@H](Cc1ccccc1)C(=O)NCC(=O)N[C@@H](Cc1ccc(O)cc1)C(=O)N1CCC[C@H]1C(=O)N[C@@H](CO)C(N)=O [Dermorphin, reference compound]
Ki (human KOR): 2710 ± 873 nM | Ki (human NOP receptor): > 10000 nM | Specific binding to human NOP receptor (human NOP receptor; at the concentration of 10 µM, [3H]nociceptin): no substantial binding | % stim. (human MOR [1]): 104 ± 8%

CSCC[C@H](NC(=O)[C@H](Cc1ccccc1)NC(=O)[C@H](Cc1c[nH]cn1)NC(=O)CNC(=O)[C@H](CO)NC(=O)[C@@H]1CCCN1C(=O)[C@H](Cc1ccc(O)cc1)NC(=O)CNC(=O)[C@H](Cc1ccccc1)NC(=O)[C@@H](C)NC(=O)[C@@H](N)Cc1ccc(O)cc1)C(N)=O [LENART01] (H-Y[dA]FGYPSGHFM-NH2)
Effect on body weights [2]: did not have any significant effect on the body weights | Ki (human MOR [3]): 11 ± 1.5 nM | Effect on rotarod latencies (motor behavior) (mice [4]): no significant alterations in the rotarod latencies | Ki (human KOR): 1310 ± 226 nM | Selectivity Ki Ratios KOR/MOR (human KOR; Ki ratio KOR/MOR): 119 | Transport across the BBB (signal in brain homogenate) [5]: no detectable signal | Ki (human NOP receptor): > 10000 nM | Selectivity Ki Ratios NOP/MOR (human NOP receptor; Ki ratio NOP/MOR): >900 | Ki (human DOR; CHO-hDOR membranes, [3H]DPDPE 1 nM, mean ± SEM, n = 3, read-out: Opioid Receptor Binding (Ki, nM) DOR): 227 ± 47 nM | Selectivity Ki Ratios DOR/MOR (human DOR; Ki ratio DOR/MOR): 21 | EC50 (human MOR [1]): 48.5 ± 10.6 nM | % stim. (human MOR [1]): 110 ± 7% | Naloxone-precipitated withdrawal signs (mice [6]): did not induce withdrawal signs

CN1CC[C@]23c4c5ccc(O)c4O[C@H]2[C@@H](O)C=C[C@H]3[C@H]1C5 [morphine]
Naloxone-induced withdrawal syndrome (mice [7]): significant naloxone-induced withdrawal syndrome | Effect on time on the rotarod (mice [8]): significantly reduced time on the rotarod
